{
  "source": "ChEMBL document CHEMBL1124314",
  "about": "“Development of phosphonate derivatives of gadolinium chelates for NMR imaging of calcified soft tissues” (J Med Chem, 1989)",
  "key": {"[1]": {"assay": "Ratio of uptake of [GD] in bone 1 hr post injection with 0.20 to that of muscle", "assay_type": "functional"}, "[2]": {"assay": "Ratio of uptake of [GD] in bone 1 hr post injection with 0.02 to that of muscle", "assay_type": "functional"}, "[3]": {"assay": "Ratio of uptake of [GD] in bone 1 hr post injection with 0.02 to that of blood", "assay_type": "functional"}, "[4]": {"assay": "Ratio of uptake of [GD] in bone 1 hr post injection with 0.05 to that of blood", "assay_type": "functional"}, "[5]": {"species": "Rattus norvegicus", "assay": "Uptake of [GD] in bone 1 hr post injection with 0.02 of the compound", "assay_type": "functional, Bone element"}, "[6]": {"assay": "Ratio of uptake of [GD] in bone 1 hr post injection with 0.005 to that of blood", "assay_type": "functional"}, "[7]": {"species": "Rattus norvegicus", "assay": "Uptake of [GD] in bone 1 hr post injection with 0.10 of the compound", "assay_type": "functional, Bone element"}, "[8]": {"species": "Rattus norvegicus", "assay": "Uptake of [GD] in bone 1 hr post injection with 0.05 of the compound", "assay_type": "functional, Bone element"}, "[9]": {"assay": "Ratio of uptake of [GD] in bone 1 hr post injection with 0.10 to that of blood", "assay_type": "functional"}, "[10]": {"species": "Rattus norvegicus", "assay": "Uptake of [GD] in bone 1 hr post injection with NCA GD dose", "assay_type": "functional, Bone element"}, "[11]": {"species": "Rattus norvegicus", "assay": "Uptake of [GD] in bone 1 hr post injection with 0.005 of the compound", "assay_type": "functional, Bone element"}, "[12]": {"assay": "Ratio of uptake of [GD] in bone 1 hr post injection with 0.10 to that of muscle", "assay_type": "functional"}, "[13]": {"assay": "Uptake of [GD] in bone 1 hr post injection with NCA GD dose to that of muscle", "assay_type": "functional, Muscle tissue"}, "[14]": {"species": "Rattus norvegicus", "assay": "Uptake of [GD] in bone 1 hr post injection with 0.20 of the compound", "assay_type": "functional, Bone element"}, "[15]": {"assay": "Ratio of uptake of [GD] in bone 1 hr post injection with NCA GD dose to that of blood", "assay_type": "functional"}, "[16]": {"assay": "Ratio of uptake of [GD] in bone 1 hr post injection with 0.005 to that of muscle", "assay_type": "functional"}, "[17]": {"assay": "Ratio of uptake of [GD] in bone 1 hr post injection with 0.05 to that of muscle", "assay_type": "functional"}, "[18]": {"assay": "Ratio of uptake of [GD] in bone 1 hr post injection with 0.20 to that of blood", "assay_type": "functional"}},
  "data": [
    {"smiles": "O=C(O)CN(CCN(CC(=O)O)CC(=O)O)CCN(CC(=O)O)CC(=O)NCCC(O)P(=O)(O)OP(=O)(O)O", "note": "(stereo not drawn)", "values": [
      {"measurement": "Ratio", "setting": "[1]", "result": 8.08},
      {"measurement": "Ratio", "setting": "[2]", "result": 20.1},
      {"measurement": "Ratio", "setting": "[3]", "result": 34.9},
      {"measurement": "Ratio", "setting": "[4]", "result": 29.8},
      {"measurement": "ID", "setting": "[5]", "result": 28.9, "unit": "%"},
      {"measurement": "Ratio", "setting": "[6]", "result": 110.4},
      {"measurement": "ID", "setting": "[7]", "result": 16.1, "unit": "%"},
      {"measurement": "ID", "setting": "[8]", "result": 21.2, "unit": "%"},
      {"measurement": "Ratio", "setting": "[9]", "result": 25.7},
      {"measurement": "ID", "setting": "[10]", "result": 57, "unit": "%"},
      {"measurement": "ID", "setting": "[11]", "result": 44.4, "unit": "%"},
      {"measurement": "Ratio", "setting": "[12]", "result": 12.5},
      {"measurement": "Ratio", "setting": "[13]", "result": 70.6},
      {"measurement": "ID", "setting": "[14]", "result": 13.5, "unit": "%"},
      {"measurement": "Ratio", "setting": "[15]", "result": 108},
      {"measurement": "Ratio", "setting": "[16]", "result": 52.7},
      {"measurement": "Ratio", "setting": "[17]", "result": 19.6},
      {"measurement": "Ratio", "setting": "[18]", "result": 13.9}
    ]}
  ]
}
